According to patent US20240188566A1, “Biocidal Composition and Method” (ARXADA, LLC, priority 2021, published 2024):

Tests used:
[1] = test system: bacteria, fungi, and yeast; settings: background statement; cited from earlier work
[2] = test system: Pseudomonas aeruginosa, Escherichia coli, Enterobacter cloacae, Acinetobacter calcoaceticus; assay: In-can challenge test, modified ASTM D2574-97 (Table 1); format: cell-based
Procedure: (§1) Various formulations were made in accordance with the present disclosure and tested for performance. In one challenge test, the efficacy of dicyandiamide as an adjuvant for BIT was evaluated using modified ASTM D2574-97 “Standard Test Method for Resistance of Emulsion Paints in the Container to Attack by Microorganisms” with higher inoculation volumes and frequency. A standard consortium of four (4) bacterial populations: Pseudomonas aeruginosa, Escherichia coli, Enterobacter cloacae, Acinetobacter calcoaceticus was used to inoculate three (3) different samples at ten percent (10%), five percent (5%), or two and a half percent (2.5%) of the sample size. At twenty-four (24) hours and seventy-two (72) hours after each inoculation, a portion of each sample was streaked on tryptic soy agar. A dilution plate count was performed at the last seventy-two (72) hour time point.
(§2) Example data provided in Tables 1, 2 and 3 should be understood as indicating the degree of microbial growth observed for a given data point unless otherwise indicated. In particular, each plate is ranked from 0 through 5c (i.e., one of 0, 1, 2, 3, 4, 5, or 5c) according to the degree of observed microbial growth, where: a “0” ranking indicates no growth; a “1” ranking indicates one (1) through five (5) observed colony forming unit (cfu), i.e., the plate was very lightly contaminated; a “2” ranking indicates six (6) through fifteen (15) cfu, i.e., the plate was lightly contaminated; a “3” ranking indicates sixteen (16) through thirty (30) cfu, i.e., the plate was moderately contaminated; a “4” ranking indicates thirty-one (31) through forty-five (45) cfu, i.e., the plate was heavily contaminated; a “5” ranking indicates greater than (45) cfu, i.e., the plate was severely contaminated; and a “5c” ranking indicates confluent growth, i.e., the plate was very severely contaminated. Thus, for instance, Table 1, Challenge 1 at 24 h for BIT 50 ppm has a value of 5 indicating greater than forty-five (45) cfu were observed. As another example for illustration, Table 1, Challenge 1 at 24 h for dicyandiamide 5,000 ppm+BIT 50 ppm has a value of 1 indicating one (1) through five (5) cfu was observed.

[3] = test system: Pseudomonas aeruginosa, Escherichia coli, Enterobacter cloacae, Acinetobacter calcoaceticus; assay: Repeat in-can challenge test, same conditions (Table 2); format: cell-based
Procedure: as §1, §2

[4] = neutral pH; cited from earlier work
[5] = BIT 50 ppm, Challenge 1 (10%), 24 h
[6] = BIT 50 ppm, Challenge 1 (10%), 72 h
[7] = BIT 50 ppm, Challenge 2 (5%), 72 h
[8] = BIT 50 ppm, Challenge 3 (2.5%), 24 h
[9] = BIT 50 ppm, Challenge 3 (2.5%), 72 h
[10] = BIT 100 ppm, Challenge 1 (10%), 24 h
[11] = BIT 100 ppm, Challenge 1 (10%), 72 h
[12] = BIT 100 ppm, Challenge 2 (5%), 72 h
[13] = BIT 100 ppm, Challenge 3 (2.5%), 24 h
[14] = BIT 100 ppm, Challenge 3 (2.5%), 72 h

For `O=c1[nH]sc2ccccc12` [BIT, 1,2-benzisothiazolin-3-one], the “amount required for a reliable and quick biocidal activity” value [1] is given as at most 500 ppm, the “degree of microbial growth (plate ranking)” value (from here on “degree of microbial growth”) [2, 5] is given as 5 (a “5” ranking indicates greater than (45) cfu, i.e., the plate was severely contaminated) and the “degree of microbial growth” value [2, 6] is given as 2 (a “2” ranking indicates six (6) through fifteen (15) cfu, i.e., the plate was lightly contaminated). The “degree of microbial growth” value [2, 7] was 5 (a “5” ranking indicates greater than (45) cfu, i.e., the plate was severely contaminated), the “degree of microbial growth” value [2, 8] was 5c and the dilution plate count [2, 9] was 7.8 × 10^6. For the same molecule, the “degree of microbial growth” value [2, 10] was 5 (a “5” ranking indicates greater than (45) cfu, i.e., the plate was severely contaminated), the “degree of microbial growth” value [2, 11] was 0 and the “degree of microbial growth” value [2, 12] was 0. The “degree of microbial growth” value [2, 13] was 5 (a “5” ranking indicates greater than (45) cfu, i.e., the plate was severely contaminated), the dilution plate count [2, 14] was 5.0 × 10^1 and the “degree of microbial growth” value ([3]; BIT 35 ppm, Challenge 1 (10%), 24 h) was 5c. The “degree of microbial growth” value ([3]; BIT 35 ppm, Challenge 1 (10%), 72 h) was 5c, the “degree of microbial growth” value ([3]; BIT 35 ppm, Challenge 2 (5%), 72 h) was 5c and the “degree of microbial growth” value ([3]; BIT 35 ppm, Challenge 3 (2.5%), 24 h) was 5c. For the same molecule, the dilution plate count ([3]; BIT 35 ppm, Challenge 3 (2.5%), 72 h) was 3.0 × 10^6, the “degree of microbial growth” value [3, 5] was 5c and the “degree of microbial growth” value [3, 6] was 5c. The “degree of microbial growth” value [3, 7] was 5c, the “degree of microbial growth” value [3, 8] was 5c and the dilution plate count [3, 9] was 6.6 × 10^6. The “degree of microbial growth” value ([3]; BIT 65 ppm, Challenge 1 (10%), 24 h) was 5c, the “degree of microbial growth” value ([3]; BIT 65 ppm, Challenge 1 (10%), 72 h) was 3 (a “3” ranking indicates sixteen (16) through thirty (30) cfu, i.e., the plate was moderately contaminated) and the “degree of microbial growth” value ([3]; BIT 65 ppm, Challenge 2 (5%), 72 h) was 5c. The “degree of microbial growth” value ([3]; BIT 65 ppm, Challenge 3 (2.5%), 24 h) was 5c, the dilution plate count ([3]; BIT 65 ppm, Challenge 3 (2.5%), 72 h) was 1.0 × 10^6 and the “degree of microbial growth” value ([3]; BIT 75 ppm, Challenge 1 (10%), 24 h) was 5c. For the same molecule, the “degree of microbial growth” value ([3]; BIT 75 ppm, Challenge 1 (10%), 72 h) was 0, the “degree of microbial growth” value ([3]; BIT 75 ppm, Challenge 2 (5%), 72 h) was 5 (a “5” ranking indicates greater than (45) cfu, i.e., the plate was severely contaminated) and the “degree of microbial growth” value ([3]; BIT 75 ppm, Challenge 3 (2.5%), 24 h) was 5c. For the same molecule, the dilution plate count ([3]; BIT 75 ppm, Challenge 3 (2.5%), 72 h) was 2.8 × 10^5, the “degree of microbial growth” value [3, 10] was 5c and the “degree of microbial growth” value [3, 11] was 0. For the same molecule, the “degree of microbial growth” value [3, 12] was 5 (a “5” ranking indicates greater than (45) cfu, i.e., the plate was severely contaminated), the “degree of microbial growth” value [3, 13] was 5c and the dilution plate count [3, 14] was 1.8 × 10^7.
For Zinc pyrithione [ZPT], the solubility in water [4] is given as 8 ppm.
